How the values were obtained:
Type in all cases: in vivo
[1] = test system: Setaria viridis (L.) Beauv. (Se); assay: Test for herbicidal effect by upland field soil treatment (Test Example 2), Se
Outline: (§1)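 Echinochloa crus-galli and Setaria viridis were sown in upland field soil and covered, then the soil surface was sprayed with water-diluted wettable powder at 100 g active ingredient per 10 ares (100 liters per 10 ares). Plants were grown in a greenhouse and scored on a standard scale on day 21.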

[2] = test system: Echinochloa oryzicola Vasing. (Eo); assay: Test for crop selectivity by paddy field soil treatment (Test Example 4), herbicidal effect on Eo; conditions: 100 g/10 a active ingredient, 21st day
Procedure: (§2) [table] <Test Example 4> Test For Crop Selectivity By Paddy Field Soil Treatment A paddy field soil was filled in a plastic pot of 100 cm^2 and subjected to puddling. Seeds of Echinochloa oryzicola Vasing. (Eo) were sowed; two-leaf stage seedlings of rice (Or) were transplanted in a depth of 2 cm; and water was filled in a depth of 3 cm. Next day, wettable powders produced in accordance with the Formulation 1 were diluted with water and dropped on the water surface. The application amount of each wettable powder was 100 g per 10 ares in terms of the active ingredient. Then, breeding was made in a greenhouse. At the 21st day from the treatment, the phytotoxicity and herbicidal effect of each wettable powder were examined in accordance with the standard shown in Table 40.

[3] = test system: Echinochloa crus-galli (L.) Beauv. var. crusgall (Ec); assay: Test for herbicidal effect by upland field soil treatment (Test Example 2), Ec
Outline: as §1

[4] = test system: rice (Or); assay: Test for crop selectivity by paddy field soil treatment (Test Example 4), phytotoxicity to rice; conditions: transplanted two-leaf stage rice, 100 g/10 a active ingredient, 21st day
Procedure: as §2

[5] = test system: Echinochloa oryzicola Vasing. (Eo); assay: Test for herbicidal effect by paddy field soil treatment (Test Example 1); conditions: application amount (active ingredient) 100 g/10 a, examined at the 21st day from the treatment, index per Table 40
Outline: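 Eo seeds sown in puddled paddy soil under 3 cm water; next day a water-diluted wettable powder was dropped onto the water surface at 100 g active ingredient per 10 ares. Herbicidal effect scored on a standard scale 21 days after treatment, greenhouse-grown.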

[6] = 100 g/10 a active ingredient, examined at 21st day
[7] = application amount (active ingredient) 100 g/10 a, examined at the 21st day from the treatment, index per Table 40

SMILES: O=S(=O)(Cc1c(F)cccc1F)C1=NOC2CCCCCC12 (stereo not shown) [Compound 1-518]
- Herbicidal effect to Se [1, 6]: 4 (A herbicidal effect or phytotoxicity of 70% to less than 90%)
- Herbicidal effect to Eo [2]: 5 (A herbicidal effect or phytotoxicity of 90% or more)
- Herbicidal effect to Ec [3, 6]: 5 (A herbicidal effect or phytotoxicity of 90% or more)
- Phytotoxicity to Or [4]: 1 (A herbicidal effect or phytotoxicity of 10% to less than 30%)

SMILES: O=S(=O)(Cc1c(F)cccc1F)C1=NOC2(CCCCC2)C1 [Compound 1-384]
- Herbicidal effect to Se [1, 7]: 4 (A herbicidal effect or phytotoxicity of 70% to less than 90%)
- Herbicidal effect to Eo [2]: 5 (A herbicidal effect or phytotoxicity of 90% or more)
- Herbicidal effect to Ec [3, 7]: 5 (A herbicidal effect or phytotoxicity of 90% or more)
- Herbicidal effect to Eo [5]: 5 (A herbicidal effect or phytotoxicity of 90% or more)
- Phytotoxicity to Or [4]: 0 (A herbicidal effect or phytotoxicity of 0% to less than 10%)

SMILES: CS(=O)(=O)C1=NOC2(CCC2)C1 [Compound 2-29]
- Herbicidal effect to Se [1, 6]: 5 (A herbicidal effect or phytotoxicity of 90% or more)
- Herbicidal effect to Eo [2]: 5 (A herbicidal effect or phytotoxicity of 90% or more)
- Herbicidal effect to Ec [3, 6]: 5 (A herbicidal effect or phytotoxicity of 90% or more)
- Herbicidal effect to Eo [5]: 5 (A herbicidal effect or phytotoxicity of 90% or more)
- Phytotoxicity to Or [4]: 1 (A herbicidal effect or phytotoxicity of 10% to less than 30%)

SMILES: CCC1(C)CC(S(=O)(=O)Cc2cccc([N+](=O)[O-])c2)=NO1 (stereo not shown) [Compound 1-331]
- Herbicidal effect to Se [1, 7]: 5 (A herbicidal effect or phytotoxicity of 90% or more)
- Herbicidal effect to Eo [2]: 5 (A herbicidal effect or phytotoxicity of 90% or more)
- Herbicidal effect to Ec [3, 7]: 5 (A herbicidal effect or phytotoxicity of 90% or more)
- Herbicidal effect to Eo [5]: 5 (A herbicidal effect or phytotoxicity of 90% or more)
- Phytotoxicity to Or [4]: 0 (A herbicidal effect or phytotoxicity of 0% to less than 10%)

SMILES: CC1(C)CC(S(=O)(=O)Cc2ccccc2C(=O)OC2CCCC2)=NO1 [Compound 1-601]
- Herbicidal effect to Eo [2]: 5 (A herbicidal effect or phytotoxicity of 90% or more)
- Herbicidal effect to Ec [3, 6]: 5 (A herbicidal effect or phytotoxicity of 90% or more)
- Herbicidal effect to Eo [5]: 5 (A herbicidal effect or phytotoxicity of 90% or more)
- Phytotoxicity to Or [4]: 1 (A herbicidal effect or phytotoxicity of 10% to less than 30%)

SMILES: CCCOC(=O)c1ccccc1CS(=O)(=O)C1=NOC(C)(C)C1 [Compound 1-594]
- Herbicidal effect to Se [1, 6]: 4 (A herbicidal effect or phytotoxicity of 70% to less than 90%)
- Herbicidal effect to Eo [2]: 5 (A herbicidal effect or phytotoxicity of 90% or more)
- Herbicidal effect to Ec [3, 6]: 5 (A herbicidal effect or phytotoxicity of 90% or more)
- Herbicidal effect to Eo [5]: 5 (A herbicidal effect or phytotoxicity of 90% or more)
- Phytotoxicity to Or [4]: 1 (A herbicidal effect or phytotoxicity of 10% to less than 30%)

SMILES: CCC1(C)CC(S(=O)(=O)Cc2cccc(F)c2)=NO1 (stereo not shown) [Compound 1-190]
- Herbicidal effect to Se [1, 7]: 5 (A herbicidal effect or phytotoxicity of 90% or more)
- Herbicidal effect to Eo [2]: 5 (A herbicidal effect or phytotoxicity of 90% or more)
- Herbicidal effect to Ec [3, 7]: 5 (A herbicidal effect or phytotoxicity of 90% or more)
- Herbicidal effect to Eo [5]: 5 (A herbicidal effect or phytotoxicity of 90% or more)
- Phytotoxicity to Or [4]: 1 (A herbicidal effect or phytotoxicity of 10% to less than 30%)

SMILES: CCC1(C)CC(SCc2c(F)cccc2F)=NO1 (stereo not shown) [Compound 1-198]
- Herbicidal effect to Se [1, 7]: 5 (A herbicidal effect or phytotoxicity of 90% or more)
- Herbicidal effect to Eo [2]: 5 (A herbicidal effect or phytotoxicity of 90% or more)
- Herbicidal effect to Ec [3, 7]: 4 (A herbicidal effect or phytotoxicity of 70% to less than 90%)
- Herbicidal effect to Eo [5]: 5 (A herbicidal effect or phytotoxicity of 90% or more)
- Phytotoxicity to Or [4]: 1 (A herbicidal effect or phytotoxicity of 10% to less than 30%)

SMILES: CC1(C)CC(S(=O)(=O)Cc2ccccc2OC2CCCCC2)=NO1 [Compound 1-610]
- Herbicidal effect to Se [1, 6]: 5 (A herbicidal effect or phytotoxicity of 90% or more)
- Herbicidal effect to Eo [2]: 5 (A herbicidal effect or phytotoxicity of 90% or more)
- Herbicidal effect to Ec [3, 6]: 5 (A herbicidal effect or phytotoxicity of 90% or more)
- Herbicidal effect to Eo [5]: 5 (A herbicidal effect or phytotoxicity of 90% or more)
- Phytotoxicity to Or [4]: 1 (A herbicidal effect or phytotoxicity of 10% to less than 30%)

SMILES: CCC1(C)CC(S(=O)(=O)Cc2ccccc2OC)=NO1 (stereo not shown) [Compound 1-228]
- Herbicidal effect to Se [1, 7]: 5 (A herbicidal effect or phytotoxicity of 90% or more)
- Herbicidal effect to Eo [2]: 5 (A herbicidal effect or phytotoxicity of 90% or more)
- Herbicidal effect to Ec [3, 7]: 5 (A herbicidal effect or phytotoxicity of 90% or more)
- Herbicidal effect to Eo [5]: 5 (A herbicidal effect or phytotoxicity of 90% or more)
- Phytotoxicity to Or [4]: 1 (A herbicidal effect or phytotoxicity of 10% to less than 30%)

SMILES: CC1(CO)CC(S(=O)(=O)Cc2c(F)cccc2F)=NO1 (stereo not shown) [Compound 1-394]
- Herbicidal effect to Eo [2]: 5 (A herbicidal effect or phytotoxicity of 90% or more)
- Herbicidal effect to Ec [3, 7]: 4 (A herbicidal effect or phytotoxicity of 70% to less than 90%)
- Herbicidal effect to Eo [5]: 5 (A herbicidal effect or phytotoxicity of 90% or more)
- Phytotoxicity to Or [4]: 1 (A herbicidal effect or phytotoxicity of 10% to less than 30%)

SMILES: CCCCOC(=O)c1ccccc1CS(=O)(=O)C1=NOC(C)(C)C1 [Compound 1-596]
- Herbicidal effect to Se [1, 6]: 5 (A herbicidal effect or phytotoxicity of 90% or more)
- Herbicidal effect to Eo [2]: 5 (A herbicidal effect or phytotoxicity of 90% or more)
- Herbicidal effect to Ec [3, 6]: 5 (A herbicidal effect or phytotoxicity of 90% or more)
- Herbicidal effect to Eo [5]: 5 (A herbicidal effect or phytotoxicity of 90% or more)
- Phytotoxicity to Or [4]: 1 (A herbicidal effect or phytotoxicity of 10% to less than 30%)

SMILES: CCCOC(=O)c1cccc(Cl)c1CS(=O)(=O)C1=NOC(C)(C)C1 [Compound 1-620]
- Herbicidal effect to Se [1, 6]: 5 (A herbicidal effect or phytotoxicity of 90% or more)
- Herbicidal effect to Eo [2]: 5 (A herbicidal effect or phytotoxicity of 90% or more)
- Herbicidal effect to Ec [3, 6]: 5 (A herbicidal effect or phytotoxicity of 90% or more)
- Herbicidal effect to Eo [5]: 5 (A herbicidal effect or phytotoxicity of 90% or more)
- Phytotoxicity to Or [4]: 1 (A herbicidal effect or phytotoxicity of 10% to less than 30%)

SMILES: CC1(C)CC(S(=O)(=O)Cc2c(N)cccc2F)=NO1 [Compound 1-549]
- Herbicidal effect to Se [1, 6]: 5 (A herbicidal effect or phytotoxicity of 90% or more)
- Herbicidal effect to Eo [2]: 5 (A herbicidal effect or phytotoxicity of 90% or more)
- Herbicidal effect to Ec [3, 6]: 5 (A herbicidal effect or phytotoxicity of 90% or more)
- Herbicidal effect to Eo [5]: 5 (A herbicidal effect or phytotoxicity of 90% or more)
- Phytotoxicity to Or [4]: 1 (A herbicidal effect or phytotoxicity of 10% to less than 30%)

SMILES: CCC1(C)CC(S(=O)(=O)Cc2cccc(C#N)c2)=NO1 (stereo not shown) [Compound 1-328]
- Herbicidal effect to Se [1, 7]: 4 (A herbicidal effect or phytotoxicity of 70% to less than 90%)
- Herbicidal effect to Eo [2]: 5 (A herbicidal effect or phytotoxicity of 90% or more)
- Herbicidal effect to Ec [3, 7]: 4 (A herbicidal effect or phytotoxicity of 70% to less than 90%)
- Herbicidal effect to Eo [5]: 5 (A herbicidal effect or phytotoxicity of 90% or more)
- Phytotoxicity to Or [4]: 0 (A herbicidal effect or phytotoxicity of 0% to less than 10%)

SMILES: CCCCOc1cccc(C)c1CS(=O)(=O)C1=NOC(C)(C)C1 [Compound 1-605]
- Herbicidal effect to Se [1, 6]: 4 (A herbicidal effect or phytotoxicity of 70% to less than 90%)
- Herbicidal effect to Eo [2]: 5 (A herbicidal effect or phytotoxicity of 90% or more)
- Herbicidal effect to Ec [3, 6]: 5 (A herbicidal effect or phytotoxicity of 90% or more)
- Herbicidal effect to Eo [5]: 5 (A herbicidal effect or phytotoxicity of 90% or more)
- Phytotoxicity to Or [4]: 1 (A herbicidal effect or phytotoxicity of 10% to less than 30%)

SMILES: CC(C)C1(C)CC(S(=O)(=O)Cc2c(F)cccc2F)=NO1 (stereo not shown) [Compound 1-368]
- Herbicidal effect to Se [1, 7]: 4 (A herbicidal effect or phytotoxicity of 70% to less than 90%)
- Herbicidal effect to Eo [2]: 5 (A herbicidal effect or phytotoxicity of 90% or more)
- Herbicidal effect to Ec [3, 7]: 5 (A herbicidal effect or phytotoxicity of 90% or more)
- Herbicidal effect to Eo [5]: 5 (A herbicidal effect or phytotoxicity of 90% or more)
- Phytotoxicity to Or [4]: 1 (A herbicidal effect or phytotoxicity of 10% to less than 30%)

SMILES: CCOCCOc1ccccc1CS(=O)(=O)C1=NOC(C)(C)C1 [Compound 1-580]
- Herbicidal effect to Eo [2]: 5 (A herbicidal effect or phytotoxicity of 90% or more)
- Herbicidal effect to Ec [3, 6]: 5 (A herbicidal effect or phytotoxicity of 90% or more)
- Herbicidal effect to Eo [5]: 5 (A herbicidal effect or phytotoxicity of 90% or more)
- Phytotoxicity to Or [4]: 1 (A herbicidal effect or phytotoxicity of 10% to less than 30%)

SMILES: CCC(C)OC(=O)c1ccccc1CS(=O)(=O)C1=NOC(C)(C)C1 (stereo not shown) [Compound 1-597]
- Herbicidal effect to Se [1, 6]: 4 (A herbicidal effect or phytotoxicity of 70% to less than 90%)
- Herbicidal effect to Eo [2]: 5 (A herbicidal effect or phytotoxicity of 90% or more)
- Herbicidal effect to Ec [3, 6]: 5 (A herbicidal effect or phytotoxicity of 90% or more)
- Herbicidal effect to Eo [5]: 5 (A herbicidal effect or phytotoxicity of 90% or more)
- Phytotoxicity to Or [4]: 1 (A herbicidal effect or phytotoxicity of 10% to less than 30%)

From patent US6841519B1, “Isoxazoline derivatives and herbicides containing the same as the active ingredient” (Kumiai Chemical Industry Co., Ltd., priority 1999, dated 2005)
